From US8053573B2, “Monomer 5, 6-diphenyl-1.2.4-traizinic derivatives and the use thereof” (Pierre Fabre Dermo-Cosmetique, priority 2004, dated 2011)

How the values were obtained:
Format in all cases: physicochemical
[1] = Photostability in solution in a chemical solvent (Suntest CPS+); settings: 25 μg deposited from methanol, absorbance vs non-irradiated control, in % (unit assumed); for Photostability at 10 MED mean: Suntest irradiation 10 MED; for Photostability at 20 MED mean: Suntest irradiation 20 MED
Excerpt: A Suntest CPS+ (Atlas, Linsengenicht/Altenhasslan, Germany) was used. The Suntest makes it possible to reproduce the solar spectrum and thus to carry out exposures inside at any time without weather constraints.
The radiance of the solar simulator was carefully measured with a spectroradiometer (MSS 2044, Bielefeld, Germany). UVB and UVA intensities were 0.49 mW/cm^2 and 6.32 mW/cm^2, respectively. The MED value defined by COLIPA is 5.6 J/cm^2 in total UV (22). The UV total (UVA+UVB) accounts for 14.8% of the energy delivered by the lamp (power 460 W/m^2). An irradiation dose equivalent to 1 MED corresponds to 37.83 J/cm^2 (in total spectrum) delivered by the lamp.
The Suntest test duration is calculated using the following formula: t=H/E with: […]
The solutions of the compounds are prepared at a concentration of 500 μg/ml in methanol. 50 μl (25 μg) of each solution are deposited in a crystallizer, then irradiated in the Suntest at 5, 10 and/or 20 MED. A non-irradiated control is prepared (deposit of 50 μl of solution and addition of 2.450 ml of methanol). The solvent evaporates during irradiation and the products are taken up in 2.5 ml of methanol. After irradiation, the absorbance of each solution is measured with the UV-visible spectrophotometer (Varian CARY 50 Scan).

[2] = Spectral characteristics: molar extinction coefficient and specific absorbance; settings: ethyl acetate, 10 μg/ml; for Maximum specific absorbance UVA / Maximum specific absorbance UVB: A1cm^1%
Excerpt: The calculation of the molar extinction coefficient (ε) is made from the Beer-Lambert law:
[formula] Wherein: A=absorbance I0=intensity of the incident light I=intensity of the transmitted light ε=molar extinction (or molar absorbance) coefficient in M^−1 cm^−1 l=path length in cm c=concentration in mol/l
The molar extinction coefficient can be expressed with respect to a given mass of the product. It thus makes it possible to be able to compare the coefficients of extinction between products for the same given quantity. This quantity is 1% by weight. The molar extinction coefficient thus becomes the specific absorbance (A1cm^1%).
[formula] Wherein: A1cm^1%=specific absorbance ε=molar extinction coefficient M=molar mass
The spectral characteristics of the compounds in comparison with commercial filters at a concentration of 10 μg/ml are summarized in tables 2-1 and 2-2.
Procedure: The products are dissolved in ethyl acetate to a concentration of 10 μg/ml. The spectra are measured using a dual-beam spectrophotometer (Varian CARY 50 Scan) between 290 nm and 400 nm.

[3] = as above; settings: ethyl acetate, 10 μg/ml; for Maximum specific absorbance UVC: A1cm^1%
[4] = Spectral distribution in UVA and UVB (290-400 nm); settings: range from 290 nm to 400 nm
Excerpt: The products tested are classified according to spectral distribution in UVA and UVB in a range from 290 nm to 400 nm.
It is possible to differentiate them according to their spectral distribution:
Products with a narrow spectrum: • Products absorbing in the range between 280 nm and 320 nm (UVB) • Products absorbing in the range between 320 nm and 400 nm (UVA) Products with a broad spectrum: • Products absorbing in UVB (280-320 nm) and UVA-II […] • Products covering UVB and UVA (280-400 nm).

[5] = In vitro SPF in a chemical solvent (Diffey and Robson); settings: ethyl acetate solution, 10 μg/ml, transmittance 290-400 nm
Method: The in vitro methods of determining the protective effectiveness of sun products consist of measuring by transmission spectrophotometry the absorption spectrum of the filter in solution or of the product applied on a substrate with the aim of simulating the surface of the skin. The effectiveness against UVB and/or UVA rays, or the effect on the cutaneous response, are then determined by calculation, taking into account or not the UV radiation action spectrum for the damage considered.
The Sayre/Agin and Diffey/Robson method, used since the 1990s, involves a comparative measurement, with the aid of an integrating-sphere spectroradiometer, of the transition from 290 nm to 400 nm in 5 nm steps, the sample being subjected to UV radiation from a stable known source covering the whole of the UV spectrum (unfiltered xenon).
Diffey and Robson evaluate the erythemal response by the following calculation:
[formula] E(λ)=spectral irradiation in W(m^−2) (nm^−1) at 40° N sun at 20° zenith angle ε=erythematous capacity
The Diffey and Robson formula makes it possible to determine SPF from the measurement of transmittance between 290 nm and 400 nm. Transmittance is measured in solution in ethyl acetate at a concentration of 10 μg/ml using a UV-visible spectrophotometer (Varian CARY 50 Scan).

Photostability at 10 MED mean [1] | Photostability at 20 MED mean [1] | Maximum specific absorbance UVA [2] | Maximum molar extinction coefficient UVA [2] | Wavelength of maximum molar extinction coefficient UVA [2] | Wavelength of maximum specific absorbance UVA [2] | Maximum specific absorbance UVC [3] | Maximum molar extinction coefficient UVC [3] | Wavelength of maximum molar extinction coefficient UVC [3] | Wavelength of maximum specific absorbance UVC [3] | Spectral distribution [4] | Maximum specific absorbance UVB [2] | Maximum molar extinction coefficient UVB [2] | Wavelength of maximum molar extinction coefficient UVB [2] | Wavelength of maximum specific absorbance UVB [2] | Compound | SPF [5]
82.86 | 57.37 |  |  |  |  |  |  |  |  |  |  |  |  |  | CCN(CC)c1ccc(-c2nnc(O)nc2-c2ccc(N(CC)CC)cc2)cc1 [JR18, 3-hydroxy-5,6-bis(4-diethylaminophenyl)-1,2,4-triazine] | 
 |  | 502 | 16300 M⁻¹ cm⁻¹ | at 330 | at 330 | 811 | 26300 M⁻¹ cm⁻¹ | at 280 | at 280 |  |  |  |  |  | Oc1ccccc1-c1nnc(-c2ccccc2)c(-c2ccccc2)n1 [JR67, 3-(2-hydroxyphenyl)-5,6-diphenyl-1,2,4-triazine] | 
44.51 | 30.83 |  |  |  |  |  |  |  |  | absorb in UVB | 982 | 29200 M⁻¹ cm⁻¹ | at 310 | at 310 | COc1ccc(-c2nnc(-c3ccc(OC)cc3)c(-c3ccc(OC)cc3)n2)cc1 [JR70, 3-(4-methoxyphenyl)-5,6-bis(4-methoxyphenyl)-1,2,4-triazine] | 
58.45 | 47.81 | 498 at | 19600 M⁻¹ cm⁻¹ | at 350 | 350 | 655 at | 25800 M⁻¹ cm⁻¹ | at 270 | 270 | absorb in UVB and UVA | 688 at | 27100 at M^−1 cm^−1 | 300 | 300 | COc1ccc(-c2nnc(-c3ccc(C#N)cc3)nc2-c2ccc(OC)cc2)cc1 [JR107, 3-(4-cyanophenyl)-5,6-bis(4-methoxyphenyl)-1,2,4-triazine] | 
98.07 | 97.67 | 570 | 22469 M⁻¹ cm⁻¹ | at 340 | at 340 |  |  |  |  | absorb in UVB and UVA | 721 | 28800 M⁻¹ cm⁻¹ | at 295 | at 295 | COc1ccc(-c2nnc(-c3cccc(C#N)c3)nc2-c2ccc(OC)cc2)cc1 [JR113, 3-(3-cyanophenyl)-5,6-bis(4-methoxyphenyl)-1,2,4-triazine] | 67.74
92.07 | 91.43 | 661 | 26000 M⁻¹ cm⁻¹ | at 325 | at 352 |  |  |  |  | absorb in UVB and UVA |  |  |  |  | COc1ccc(-c2nnc(-c3ccccc3C#N)nc2-c2ccc(OC)cc2)cc1 [JR114, 3-(2-cyanophenyl)-5,6-bis(4-methoxyphenyl)-1,2,4-triazine] | 
 |  | 552 | 36400 M⁻¹ cm⁻¹ | at 345 | at 345 |  |  |  |  | absorb in UVB and UVA | 556 | 36600 M⁻¹ cm⁻¹ | at 305 | at 305 | CC(C)(C)CC(C)(C)c1cc(Cc2cc(C(C)(C)CC(C)(C)C)cc(-n3nc4ccccc4n3)c2O)c(O)c(-n2nc3ccccc3n2)c1 [Tinosorb M ®, reference compound] | 54.07

Compound | Photostability at 10 MED mean [1] | Photostability at 20 MED mean [1] | Maximum specific absorbance UVA [2] | Maximum molar extinction coefficient UVA [2] | Wavelength of maximum molar extinction coefficient UVA [2] | Wavelength of maximum specific absorbance UVA [2] | Maximum specific absorbance UVC [3] | Maximum molar extinction coefficient UVC [3] | Wavelength of maximum molar extinction coefficient UVC [3] | Wavelength of maximum specific absorbance UVC [3] | Spectral distribution [4] | Maximum specific absorbance UVB [2] | Maximum molar extinction coefficient UVB [2] | Wavelength of maximum molar extinction coefficient UVB [2] | Wavelength of maximum specific absorbance UVB [2] | SPF [5]
Oc1ccc(-c2nnc(-c3ccccc3)c(-c3ccccc3)n2)cc1 [JR68, 3-(4-hydroxyphenyl)-5,6-diphenyl-1,2,4-triazine] | 98.2 | 95.33 | 424 | 13800 M⁻¹ cm⁻¹ | at 330 | at 330 | 702 | 22800 M⁻¹ cm⁻¹ | at 280 | at 280 | absorb in UVB (280-320 nm) and UVA-II (280-340 nm) |  |  |  |  | 
COc1ccc(-c2nnc(N)nc2-c2ccc(OC)cc2)cc1 [JR77, 3-amino-5,6-bis(4-methoxyphenyl)-1,2,4-triazine] | 73.03 | 61.14 | 249 | 7600 M⁻¹ cm⁻¹ | at 360 | at 360 | 631 | 19300 M⁻¹ cm⁻¹ | at 280 | at 280 | absorb in UVB (280-320 nm) and UVA-II (280-340 nm) |  |  |  |  | 47.16
COc1ccc(-c2nnc(-c3ccccc3O)nc2-c2ccc(OC)cc2)cc1 [JR89, 3-(2-hydroxyphenyl)-5,6-bis(4-methoxyphenyl)-1,2,4-triazine] | 97.39 | 98.72 | 526 at | 20300 M⁻¹ cm⁻¹ | at 335 | 335 | 502 | 19300 M⁻¹ cm⁻¹ | at 280 | at 280 | absorb in UVB (280-320 nm) and UVA-II (280-340 nm) |  |  |  |  | 
COc1ccc(-c2nnc(-c3cc(O)c(O)c(O)c3)nc2-c2ccc(OC)cc2)cc1 [JR115, 3-(3,4,5-hydroxyphenyl)-5,6-bis(4-methoxyphenyl)-1,2,4-triazine] | 57.63 | 46.42 |  |  |  |  |  |  |  |  | absorb in UVB (280-320 nm) and UVA-II (280-340 nm) | 747 | 34300 M⁻¹ cm⁻¹ | at 310 | at 310 | 
